Experimental data taken from patent US8383683B2, “Pharmaceutical use of substituted amides” (High Point Pharmaceuticals, LLC, priority 2007, dated 2013).

Target: 11βHSD1 (Homo sapiens, UniProt P28845)
Assay: 11βHSD1 enzyme assay (SPA, 3H-cortisone to 3H-cortisol)
Format: biochemical
Design: An extract of yeast transformed with h-11βHSD1 (Hutt et al., FEBS Lett., 441, 25 (1998)) was used as the source of enzyme; made in house
Settings: extract of yeast transformed with h-11βHSD1; 120 nM 3H-cortisone, 4 mM β-NADPH, 60 min at 30° C.
Protocol: Pharmacological Methods 11βHSD1 Enzyme Assay Materials
^3H-cortisone and anti-rabbit Ig coated scintillation proximity assay (SPA) beads were purchased from Amersham Pharmacia Biotech, β-NADPH was from Sigma and rabbit anti-cortisol antibodies were from Fitzgerald. An extract of yeast transformed with h-11βHSD1 (Hutt et al., FEBS Lett., 441, 25 (1998)) was used as the source of enzyme. The test compounds were dissolved in DMSO (10 mM). All dilutions were performed in a buffer containing 50 mM TRIS-HCl (Sigma Chemical Co), 4 mM EDTA (Sigma Chemical Co), 0.1% BSA (Sigma Chemical Co), 0.01% Tween-20 (Sigma Chemical Co) and 0.005% bacitracin (Novo Nordisk NS), pH=7.4. Optiplate 96 wells plates were supplied by Packard. The amount of ^3H-cortisol bound to the SPA beads was measured on TopCount NXT, Packard.
h-11βHSD1, 120 nM ^3H-cortisone, 4 mM β-NADPH, antibody (1:200), serial dilutions of test compound and SPA particles (2 mg/well) were added to the wells. The reaction was initiated by mixing the different components and was allowed to proceed under shaking for 60 min at 30° C. The reaction was stopped be the addition of 10 fold excess of a stopping buffer containing 500 μM carbenoxolone and 1 μM cortisone. Data was analysed using GraphPad Prism software.

Sequence of 11βHSD1 (P28845 whole entry): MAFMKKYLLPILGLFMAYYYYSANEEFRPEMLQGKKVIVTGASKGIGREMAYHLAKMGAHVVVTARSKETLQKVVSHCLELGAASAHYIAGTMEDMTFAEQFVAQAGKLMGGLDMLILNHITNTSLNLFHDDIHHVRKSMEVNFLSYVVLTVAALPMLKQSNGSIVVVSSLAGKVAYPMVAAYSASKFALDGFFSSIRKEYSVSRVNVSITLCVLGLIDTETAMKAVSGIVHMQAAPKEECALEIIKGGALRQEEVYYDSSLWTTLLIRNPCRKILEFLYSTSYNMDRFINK

Row | IC50 [µM] | SMILES
1 | 0.027 | O=C(CCCOc1ccc(Cl)cc1Cl)N[C@@]12C[C@@H]3C[C@@H](C[C@@](O)(C3)C1)C2 [Example 1-1, 4-(2,4-Dichloro-phenoxy)-N-((1R,3S,5R,7S)-3-hydroxy-adamantan-1-yl)-butyramide]
2 | 0.405 | O=C(CCCOc1ccc(Cl)cc1Cl)NC(c1ccccc1)C1CC1 (stereo not shown) [Example 1-3, N-(Cyclopropyl-phenyl-methyl)-4-(2,4-dichloro-phenoxy)-butyramide]
3 | 0.296 | O=C(CCCOc1ccc(Cl)cc1Cl)N1CCCCC1c1ccccc1Cl (stereo not shown) [Example 1-4, 1-[2-(2-Chloro-phenyl)-piperidin-1-yl]-4-(2,4-dichloro-phenoxy)-butan-1-one]
4 | 0.201 | O=C(CCCOc1ccc(Cl)cc1Cl)N1CCCCC1c1ccccc1 (stereo not shown) [Example 1-10, 4-(2,4-Dichloro-phenoxy)-1-(2-phenyl-piperidin-1-yl)-butan-1-one]
5 | 0.271 | CC1(C)[C@H]2CC[C@@H](CNC(=O)CCCOc3ccc(Cl)cc3Cl)[C@@H]1C2 [Example 1-11, 4-(2,4-Dichloro-phen-oxy)-N-((1S,2R,5S)-6,6-dimethyl-bicyclo[3.1.1]-hept-2-ylmethyl)-butyr-amide]
6 | 0.052 | O=C(CCCOc1ccc(Cl)cc1Cl)N1CC2CCC(CC2)C1 [Example 1-15, 1-(3-Aza-bicyclo[3.2.2]-non-3-yl)-4-(2,4-di-chloro-phenoxy)-butan-1-one]
7 | 0.007 | COC(=O)C1CC2CCC(C1)N2C(=O)CCCOc1ccc(Cl)cc1Cl (stereo not shown) [Example 1-17, 8-[4-(2,4-Dichloro-phenoxy)-butyryl]-8-aza-bicyclo[3.2.1]octane-3-carboxylic acid methyl ester]
8 | 0.209 | O=C(CCCOc1ccc(Cl)cc1Cl)N(C1CC1)C1C2CC3CC1CC(O)(C3)C2 (stereo not shown) [Example 1-18, N-Cyclopropyl-4-(2,4-dichloro-phenoxy)-N-(5-hydroxy-adamantan-2-yl)-butyramide]
9 | 0.024 | O=C(CCCOc1ccc(Cl)cc1Cl)N(C1CC1)C1C2CC3CC1CC(O)(C3)C2 (stereo not shown) [Example 1-19, N-Cyclopropyl-4-(2,4-dichloro-phenoxy)-N-(5-hydroxy-adamantan-2-yl)-butyramide]
10 | 0.013 | O=C(CCCOc1ccc(Cl)cc1Cl)NC12CC3CC(C1)CC(C(=O)O)(C3)C2 [Example 1-20, 3-[4-(2,4-Dichloro-phenoxy)-butyrylamino]-adamantane-1-carboxylic acid]
11 | 0.001 | O=C(CCCOc1ccc(Cl)cc1Cl)NC1C2CC3CC(C2)C(CO)C1C3 (stereo not shown) [Example 1-21, 4-(2,4-Dichloro-phenoxy)-N-(4-hydroxy-methyl-adamantan-2-yl)-butyramide]
12 | 0.006 | O=C(CCCOc1ccc(Cl)cc1Cl)N1CC2CC3CC1CC(O)(C3)C2 (stereo not shown) [Example 1-22, 4-(2,4-Dichloro-phenoxy)-1-(1-hydroxy-4-aza-tricyclo-[4.3.1.1{3,8}]undec-4-yl)-butan-1-one]
13 | 0.151 | O=C(CCCOc1ccc(Cl)cc1Cl)N1CC2CC(O)C1C2 (stereo not shown) [Example 1-23, 4-(2,4-Dichloro-phenoxy)-1-(6-hydroxy-2-aza-bicyclo[2.2.1]hept-2-yl)-butan-1-one]
14 | 0.02 | O=C(CCCOc1ccc(Cl)cc1Cl)N1CC2CC1CC2O (stereo not shown) [Example 1-24, 4-(2,4-Dichloro-phenoxy)-1-(5-hydroxy-2-aza-bicyclo[2.2.1]hept-2-yl)-butan-1-one]
15 | 0.185 | O=C(CCCOc1ccc(Cl)cc1Cl)N1CC2CC(O)CC1C2 (stereo not shown) [Example 1-25, 4-(2,4-Dichloro-phenoxy)-1-(3-hydroxy-6-aza-bicyclo[3.2.1]oct-6-yl)-butan-1-one]
16 | 0.021 | CN(C(=O)CCCOc1ccc(Cl)cc1Cl)C1CCC(O)CC1 (stereo not shown) [Example 1-26, 4-(2,4-Dichloro-phenoxy)-N-(4-hydroxy-cyclohexyl)-N-methyl-butyramide]
17 | 0.004 | O=C(CCCOc1ccc(Cl)cc1Cl)NC1C2CC3CC1CC(O)(C3)C2 (stereo not shown) [Example 1-27, 4-(2,4-Dichloro-phenoxy)-N-(5-hydroxy-adamantan-2-yl)-butyramide]
18 | 0.001 | O=C(CCCOc1ccc(Cl)cc1Cl)NC12CC3CC(CC(CO)(C3)C1)C2 [Example 1-28, 4-(2,4-Dichloro-phenoxy)-N-(3-hydroxy-methyl-adamantan-1-yl)-butyramide]
19 | 0.014 | O=C(CCCOc1ccc(Cl)cc1Cl)N1CC2CCC1C2O (stereo not shown) [Example 1-29, 4-(2,4-Dichloro-phenoxy)-1-(7-hydroxy-2-aza-bicyclo[2.2.1]hept-2-yl)-butan-1-one]
20 | 0.01 | COC(=O)C12CC3CC(CC(NC(=O)CCCOc4ccc(Cl)cc4Cl)(C3)C1)C2 [Example 1-30, 3-[4-(2,4-Dichloro-phenoxy)-butyrylamino]-adamantane-1-carboxylic acid methyl ester]

Row | IC50 [µM] | SMILES
21 | 0.011 | O=C(CCCOc1ccc(Cl)cc1Cl)NC12CC3CC(C1)CC(C(=O)O)(C3)C2 [Example 1-31, 3-[4-(2,4-Dichloro-phenoxy)-butyrylamino]-adamantane-1-carboxylic acid]
22 | 0.004 | CN(C(=O)CCCOc1ccc(Cl)cc1Cl)C1C2CC3CC1CC(O)(C3)C2 (stereo not shown) [Example 1-32, 4-(2,4-Dichloro-phenoxy)-N-(5-hydroxy-adamantan-2-yl)-N-methyl-butyramide]
23 | 0.007 | CCN(C(=O)CCCOc1ccc(Cl)cc1Cl)C1C2CC3CC1CC(O)(C3)C2 (stereo not shown) [Example 1-33, 4-(2,4-Dichloro-phenoxy)-N-ethyl-N-(5-hydroxy-adamantan-2-yl)-butyramide]
24 | 0.172 | CCN(C(=O)CCCOc1ccc(Cl)cc1Cl)C1C2CC3CC1CC(O)(C3)C2 (stereo not shown) [Example 1-34, 4-(2,4-Dichloro-phenoxy)-N-ethyl-N-(5-hydroxy-adamantan-2-yl)-butyramide]
25 | 0.252 | O=C(CCCOc1ccc(Cl)cc1Cl)N1CC2CCC(C1)C2O (stereo not shown) [Example 1-35, 4-(2,4-Dichloro-phenoxy)-1-(8-hydroxy-3-aza-bicyclo[3.2.1]oct-3-yl)-butan-1-one]
26 | 0.397 | O=C(CCCOc1ccc(Cl)cc1Cl)N1CC2CCC1CC2O (stereo not shown) [Example 1-36, 4-(2,4-Dichloro-phenoxy)-1-(5-hydroxy-2-aza-bicyclo[2.2.2]oct-2-yl)-butan-1-one]
27 | 1.82 | CN(C(=O)CCCOc1ccccc1)C1CCC(O)CC1 (stereo not shown) [Example 1-37, N-(4-Hydroxy-cyclohexyl)-N-methyl-4-phenoxy-butyramide]
28 | 0.05 | O=C(CCCOc1ccccc1)NC1C2CC3CC1CC(O)(C3)C2 (stereo not shown) [Example 1-39, N-(5-Hydroxy-adamantan-2-yl)-4-phenoxy-butyramide]
29 | 1.34 | CN(C(=O)CCCOc1ccccc1)C1C2CC3CC1CC(O)(C3)C2 (stereo not shown) [Example 1-42, N-(5-Hydroxy-adamantan-2-yl)-N-methyl-4-phenoxy-butyramide]
30 | 0.058 | CN(C(=O)CCCOc1ccccc1)C1C2CC3CC1CC(O)(C3)C2 (stereo not shown) [Example 1-43, N-(5-Hydroxy-adamantan-2-yl)-N-methyl-4-phenoxy-butyramide]
31 | 0.009 | O=C(CCCOc1ccccc1)NC12CC3CC(CC(CO)(C3)C1)C2 [Example 1-45, N-(3-Hydroxymethyl-adamantan-1-yl)-4-phenoxy-butyramide]
32 | 1.51 | O=C(CCCOc1ccccc1)N1CC2CC1CC2O (stereo not shown) [Example 1-46, 1-(5-Hydroxy-2-aza-bicyclo[2.2.1]hept-2-yl)-4-phenoxy-butan-1-one]
33 | 1.08 | O=C(CCCOc1ccccc1)N1CC2CCC1C2O (stereo not shown) [Example 1-48, 1-(7-Hydroxy-2-aza-bicyclo[2.2.1]hept-2-yl)-4-phenoxy-butan-1-one]
34 | 0.141 | CC(C)N(C(=O)CCCOc1ccccc1)C1C2CC3CC1CC(O)(C3)C2 (stereo not shown) [Example 1-49, N-(5-Hydroxy-adamantan-2-yl)-N-isopropyl-4-phenoxy-butyramide]
35 | 0.061 | CCN(C(=O)CCCOc1ccccc1)C1C2CC3CC1CC(O)(C3)C2 (stereo not shown) [Example 1-51, N-Ethyl-N-(5-hydroxy-adamantan-2-yl)-4-phenoxy-butyramide]
36 | 0.054 | COC(=O)C12CC3CC(CC(NC(=O)CCCOc4ccccc4)(C3)C1)C2 [Example 1-52, 3-(4-Phenoxy-butyryl-amino)-adamantane-1-carboxylic acid methyl ester]
37 | 0.194 | O=C(CCCOc1ccccc1)NC12CC3CC(C1)CC(C(=O)O)(C3)C2 [Example 1-53, 3-(4-Phenoxy-butyryl-amino)-adamantane-1-carboxylic acid]
38 | 0.01 | O=C(CCCOc1ccccc1)NC1C2CC3CC1CC(CO)(C3)C2 (stereo not shown) [Example 1-54, N-(5-Hydroxymethyl-adamantan-2-yl)-4-phenoxy-butyramide]
39 | 0.002 | O=C(CCCOc1ccc(Cl)cc1Cl)NC1C2CC3CC1CC(CO)(C3)C2 (stereo not shown) [Example 1-55, 4-(2,4-Dichloro-phenoxy)-N-(5-hydroxy-methyl-adamantan-2-yl)-butyramide]
40 | 0.322 | CC(C)N(C(=O)CCCOc1ccc(Cl)cc1Cl)C1C2CC3CC1CC(O)(C3)C2 (stereo not shown) [Example 1-56, 4-(2,4-Dichloro-phenoxy)-N-(5-hydroxy-adamantan-2-yl)-N-isopropyl-butyramide]
